Measurements: PubChem BioAssay (NCI)
Where “and” joins values, the source holds several entries; their conditions need not be identical. Identical values can stand only once.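 48-hour exposure; five concentrations; linearly interpolated endpoints. Abbreviation: GI50, concentration required for 50% inhibition of growth. TGI marks complete inhibition of growth.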

Key:
Assay in all cases: inhibition of tumour cell growth, NCI panel, 48 h
[1] = system: CCRF-CEM leukemia
[2] = system: LOX IMVI melanoma
[3] = system: K-562 leukemia
[4] = system: HCC-2998 colon
[5] = system: M14 melanoma
[6] = system: SW-620 colon
[7] = system: HS 578T breast
[8] = system: NCI-H23 lung
[9] = system: PC-3 prostate
[10] = system: T-47D breast
[11] = system: COLO 205 colon

SMILES	TGI [1]	TGI [2]	TGI [3] [µM]	TGI [4]	TGI [5]	TGI [6]	GI50 [1]	GI50 [7]	GI50 [8]	TGI [8]	TGI [9]	GI50 [2]	GI50 [10]	GI50 [4] [µM]	TGI [7] [µM]	TGI [11]	TGI [10] [µM]	GI50 [11]
CC(Oc1ccc(OCC2CCCCC2)cc1)C(=O)NCc1ccco1 (centres undefined)	> 100 µM	54.3 µM	> 100	> 100 µM	42.6 µM													
COc1ccc2nc3cccc([N+](=O)[O-])c3c(NCCCO)c2c1	0.0572 µM and 0.133 µM				0.00227 µM	0.0323 µM	0.00583 µM and 0.0153 µM	0.00445 µM and 0.033 µM	0.0117 µM	0.05 µM	0.0104 µM and 0.103 µM	0.0085 µM and 0.0471 µM	0.0292 µM and 0.136 µM	0.00186				
CNc1nc(C(N)=O)c(N)s1	> 100 µM	> 100 µM	> 100		> 100 µM	> 100 µM				> 100 µM	> 100 µM				> 100	> 100 µM	> 100	
CC1(C)N=C(C2CCCN2C(=O)OCc2ccccc2)OC1=O (centres undefined)	> 100 µM	> 100 µM	> 100	> 100 µM	> 100 µM	> 100 µM				> 100 µM	> 100 µM				> 100	> 100 µM		
COc1ccc(-c2oc3c(OC)c(OC)cc(O)c3c(=O)c2OC)cc1	> 100 µM	> 100 µM	> 100	> 100 µM	> 100 µM	> 100 µM				> 100 µM					> 100	> 100 µM	> 100	
CC(=O)Oc1ccc2c3c1O[C@H]1[C@H](O)CC[C@@]4(O)[C@@H](C2)N(C)CC[C@]314		> 100 µM			> 100 µM	> 100 µM				> 100 µM	> 100 µM				> 100	> 100 µM	> 100	
O=c1oc2c(Cl)cc(Cl)cc2cc1C1=CSC2=NCCN12	> 100 µM	> 100 µM	> 100		> 100 µM	> 100 µM				> 100 µM	> 100 µM					> 100 µM	> 100	
COc1cc(C2c3cc4c(cc3[C@@H](NCCN3CCOCC3)C3COC(=O)[C@H]23)OCO4)cc(OC)c1O (some centres undefined)	> 75 µM	7.95 µM and 5.02 µM	> 75	11.5 µM and 7.24 µM	11.7 µM and > 17.5 µM	18.5 µM and > 17.5 µM			1.17 µM and 2.45 µM	4.89 µM and 7.21 µM						19.4 µM and > 17.5 µM		8.01 µM and 1.95 µM
CNC1(C(=O)O)CC1	> 100 µM	> 100 µM	> 100	> 100 µM	> 100 µM	> 100 µM				> 100 µM	> 100 µM				> 100		> 100	
Cc1ccc(N/C(SCc2ccccc2)=C(\C(Cl)=C(Cl)Cl)[N+](=O)[O-])c(C)c1	> 100 µM			> 100 µM	34 µM	33.3 µM				38.5 µM	> 100 µM				68.4	31.6 µM	69.3	
Cc1ccc(Nc2nc3c(=O)n(C)c(=O)n(C)c3nc2Nc2ccc(C)cc2)cc1	> 100 µM	22.6 µM	> 100	35.1 µM		4.04 µM				31.2 µM	27.9 µM				79.6	16 µM	30.3	
CCCCCCCCCCCCCCCCCCOCC(O)COP(=O)(O)OCC1OC(n2ccc(N)nc2=O)C(O)C1O (centres undefined)	18.6 µM	31.1 µM	> 100	> 100 µM		> 100 µM				> 100 µM	20.7 µM				> 100	29.5 µM	> 100	
Nc1nc(-c2ccco2)cc(-c2ccc(CO)o2)n1	> 100 µM	> 100 µM	> 100		> 100 µM	> 100 µM				> 100 µM						> 100 µM		
CSc1nc2c(c(=O)[nH]1)N=C(c1ccccc1)CC(c1ccccc1)N2 (centres undefined)	> 100 µM	> 100 µM	68.4	> 100 µM	> 100 µM	> 100 µM				98.2 µM	> 100 µM					> 100 µM		
ON=C(CC(O)(C(F)(F)Cl)C(F)(F)Cl)CC(O)(C(F)(F)Cl)C(F)(F)Cl	> 10 µM	> 10 µM	> 10	> 10 µM		> 10 µM				> 10 µM	> 10 µM				> 10	> 10 µM	> 10	
N#Cc1c(-c2ccccc2)c(CN2CCCCC2)c(=O)n2c1[nH]c1ccccc12	> 100 µM	50.8 µM	60.9	> 100 µM	> 100 µM	> 100 µM				> 100 µM	> 100 µM					64 µM	> 100	
CC(=O)CC1=C(OC(C)C)C2(OCCO2)C1O (centres undefined)	> 100 µM	> 100 µM			> 100 µM	> 100 µM				> 100 µM	> 100 µM				> 100	> 100 µM	> 100	
Cc1ccc2c(/C=C/c3ccc(N(C)C)cc3)ccc(C(C)C)cc1-2	> 100 µM	> 100 µM	> 100		> 100 µM	> 100 µM				> 100 µM	> 100 µM				> 100	> 100 µM	> 100	
CC1=C(C(=O)N[C@@H](CC(C)C)C(=O)O)N2C(=O)[C@@H](NC(=O)C(N)c3ccccc3)[C@H]2SC1 (some centres undefined)	> 100 µM	> 100 µM	> 100	> 100 µM	> 100 µM	> 100 µM					> 100 µM				> 100	> 100 µM	> 100	
O=C(N/N=C/c1ccccc1)c1cccc2nc3ccccc3nc12	> 100 µM	> 100 µM	> 100		> 100 µM	> 100 µM				> 69.2 µM	> 100 µM				> 72.9	18 µM	> 100	
COc1cccc(/C=C2\S/C(=N/Nc3nc(-c4ccc([N+](=O)[O-])cc4)cs3)NC2=O)c1O	63.3 µM	17.1 µM		33.7 µM	33.2 µM	46.1 µM				33.5 µM	40.2 µM				74.1	33 µM	27.5	
Cc1ccc(N(C)S(=O)(=O)c2ccccc2[N+](=O)[O-])cc1		> 100 µM			44.5 µM	> 100 µM				> 100 µM	> 100 µM					> 100 µM	> 100	
